Broadly, the EC50 is the concentration giving half of the maximal effect.

Here are results for ten molecules from US5096929A, “2-amino-1,2,3,4-tetrahydronaphthalene derivatives with cardiovascular activity, process for their preparation and pharmaceutical compositions containing them” (Chiesi Farmaceutici S.p.A., priority 1989, dated 1992).

For one data set, the system named is isolated rat left atrium. Kind of data set: Isolated rat left atrium: inotropic activity (force). To be noted: for EC50 / Emax: Rattus norvegicus; for EC50: read-out: EC50, left atrium (force); for Inotropic activity of diastereoisomeric mixture (in words): rat isolated left atrium; for Activity in isolated rat left atrium and right atrium (in words): Table I and text. The method, then:
(§1) The inotropic and chronotropic effects of compound (Ia) of the invention were determined in vitro using, respectively, isolated rat left atrium and right atrium.
Left atrium:inotrocic activity
The atria were subjected to a 0.5 g starting tension and suspended in a bath containing aerated Krebs-Henseleit j solution with 95% O2 and […] kept at 32.C. The preparation was stimulated at a 4 Hz frequency with pulses during 5 msec each. The contraction strength was detected by an isometric transducer and recorded on a microndynamometer.
(§2) The results were expressed as the percentage of the response obtained with a maximal dose ([…]) of isoproterenol which was determined at the beginning of the test. In Table 1 the potency (EC50=effective concentration inducing the 50% of the maximal effect) and the relative intrinsic activity (expressed as α and compared with that of isoproterenol, taken=1) are shown.
(§3) The effects of the compounds were evaluated in rat isolated atria according to the previously described method.
(§4) Table 3. Potency (EC50) and intrinsic activity (α;isoproterenol=1) on the isolated rat left atrium (Inotropic activity) and right atrium (chronotropic activity).

The subject of data set [1] is isolated rat right atrium. Description: Isolated rat right atrium: chronotropic activity (frequency). To be noted: Rattus norvegicus; for EC50: read-out: EC50, right atrium (frequency). The method, then:
as §1
Right atrium:chronotrpic activity
The preparation was prepared in the same way and under the same conditions as described above, but was not subjected to electric stimulation. Frequency was monitored by a cardiotachograph.
as §2, §3, §4

A further data set deals with beta-1. To be noted: background art, cited from earlier work.
A further data set concerns anesthetized dog. Kind of data set: Anesthetized dog: cardiovascular activity. In kind it is in vivo, Beagle dog. To be noted: anesthetized dog, i.v. The method, then: The interesting hemodynamic properties of CHF 1255 were confirmed in vivo in the anesthetized dog.
Anesthesized dog: cardiovascular activity
Beagle dogs were anesthetized with sodium pentobarbital (30 mg/kg iv) thoracotomized and monitored by recording cardiocirculatory parameters.
CHF 1255 and the reference drugs (amrinone and xamoterol) were administered i.v. in a bolus.
CHF 1255 at the doses of 0.3-1.3 μmoles/kg i.v. confirmed its activity in changing hemodynamic parameters.

Data set [2] concerns arterial rat hind quarter. Kind of data set: Rat perfused hind quarter; vasodilating action. To be noted: for Emax: Rattus norvegicus; for ED40, K+ induced contraction / ED40, norepinephrine induced contraction / ED40, 5-HT induced contraction: dose decreasing contraction by 40%; for ED40, K+ induced contraction: K+ 40 mM; for ED40, 5-HT induced contraction: serotonin 5×10^-7 M. Here is the method: Rat perfused hind quarter; vasodilating action
The vasodilating effect of CHF 1255 has been evaluated in the arterial rat hind quarter perfused with Krebs-Henseleit solution at constant flow.
The increase of arterial resistance was induced by K^+ -enriched solution (40 mM), norepinephrine (5×10^-6 M) and serotonin (5×10^-7 M).
Papaverine and prazosin, powerful α-blocker vasodilator, were used as reference compounds.
ED40 =dose (moles) decreasing of 40% the contraction induced by the agonist. 100% was considered as the complete recduction of contraction.

Data set [3] addresses T1, beta-2 adrenergic receptors (Cavia porcellus, UniProt Q8K4Z4).
T1 construct: Trachea strips were isolated and prepared according to the method described by Emerson J and Machay D; from tissue; host or cells: guinea-pig isolated trachea strips
Description: Isolated guinea-pig trachea: interactions with beta-2 adrenergic receptors (relaxation of carbachol contraction). To be noted: for EC50: guinea-pig trachea, carbachol 3×10^-7 M. The method, then:
The selectivity of this interaction has been studied by evaluating the effects on beta-2 adrenergic receptors, in the guinea-pig isolated trachea, using CHF 1026 as reference compound.
Isolated guinea-pig trachea: interactions with beta-2 adrenergic receptors
Trachea strips were isolated and prepared according to the method described by Emerson J and Machay D in J Pharm Pharmacol 1979, 31, 798, immersed in Krebs-Henseleit solution (37° C., 95% O2 +5% CO2), subjected to an initial tension of 1 g and contracted with carbachol (3×10^-7 M).
Dose-response curves of CHF 1255 and CHF 1026 were recorded in the absence and in the presence of 10^-6 M propranolol, used as antagonist and added to the bath before the stimulation with carbachol.
The obtained results are shown in Table 2, expressed as potency (EC50 calculated from t he dose--response curve) and intrinsic activity (α, isoproternol=1).

The mark [4] stands for this setting: Table I, isolated rat left atrium, 4 Hz stimulation, confidence limits in parentheses.
[5] abbreviates: Table I, isoproterenol taken=1, confidence limits in parentheses, read-out: α (intrinsic activity), left atrium (force).
[6] abbreviates: Table I, isolated rat right atrium, confidence limits in parentheses.
[7] abbreviates: Table I, isoproterenol taken=1, confidence limits in parentheses, read-out: α (intrinsic activity), right atrium (frequency).
Setting [8] is: Table 3, inotropic activity, rat left atrium.
The mark [9] stands for this setting: Table 3, isoproterenol=1, read-out: α, left atrium (force).
[10] abbreviates: Table 3, chronotropic activity, rat right atrium.
The mark [11] stands for this setting: Table 3, isoproterenol=1, read-out: α, right atrium (frequency).

Counter-ions that a name gives are not always drawn. Like-named read-outs stand apart in the source and are kept apart here.

T1 sequence (Q8K4Z4 whole entry): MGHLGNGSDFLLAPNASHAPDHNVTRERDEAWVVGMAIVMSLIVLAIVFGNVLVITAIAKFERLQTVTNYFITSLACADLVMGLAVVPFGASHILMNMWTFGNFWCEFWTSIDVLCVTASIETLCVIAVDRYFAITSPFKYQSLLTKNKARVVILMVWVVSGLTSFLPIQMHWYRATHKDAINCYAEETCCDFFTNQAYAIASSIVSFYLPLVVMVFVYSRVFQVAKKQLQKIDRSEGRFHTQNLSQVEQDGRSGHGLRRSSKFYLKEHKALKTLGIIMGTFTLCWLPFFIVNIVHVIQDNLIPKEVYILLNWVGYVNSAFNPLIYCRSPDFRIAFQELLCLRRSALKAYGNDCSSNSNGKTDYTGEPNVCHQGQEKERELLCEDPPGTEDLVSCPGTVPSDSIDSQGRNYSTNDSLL

For the molecule `O=C(NCCNCC(O)COc1ccc(O)cc1)N1CCOCC1` (centres unmarked) [xamoterol, xamoterol fumarate], the EC50 with isolated rat left atrium amounted to 4.98 nM; in data set [1], 4.71 nM. For the same molecule, the Emax in the data set on isolated rat left atrium (read-out: α, left atrium (force)) turned out to be 33%; in data set [1] (read-out: α, right atrium (frequency)), 76%. Besides, the “Agonistic action relative to isoproterenol” value with beta-1 (% that of isoproterenol) was 40%. In addition, the “Tolerability (in words)” value in the data set with beta-1 (vs prenalterol) is reported as “better tolerated”. Moreover, the “Hemodynamic effects (in words)” value with anesthetized dog is reported as “negligible”.

Regarding `COc1ccc2c(c1OC)CCC(N[C@H](C)[C@@H](O)c1ccc(O)cc1)C2` (some centres unmarked) [CHF 1388, (αR,βS)-5,6-dimethoxy-2-[2-(4-hydroxyphenyl)-2-hydroxy-1-methylamino]-2-hydroxy-I-methylethylamino]--,2,3,4-tetrahydronaphthalene hydrochloride], the “Inotropic activity of diastereoisomeric mixture (in words)” value in the data set on isolated rat left atrium is reported as “did not show any inotropic activity”. Further, the “Contribution to vasodilating activity of CHF 1255” value in data set [2] is listed as “vasodilating activity of CHF 1255 is mainly due to CHF 1388”.

As for `COc1ccc(Cc2nccc3cc(OC)c(OC)cc23)cc1OC` [papaverine, Papaverine], the “Activity against contraction by the different agents (in words)” value in data set [2] (K+, norepinephrine, serotonin) is “same ED40 for the different experimental conditions”. For the same molecule, the Emax in data set [2] (read-out: α (efficacy), 5-HT induced contraction) came out at 90%; in data set [2] (read-out: α (efficacy), K+ induced contraction), 90%; in data set [2] (read-out: α (efficacy), norepinephrine induced contraction) it was 95%. Besides, in data set [2], the “ED40, K+ induced contraction” value was found to be 6.5e-08 mol. Moreover, the “ED40, norepinephrine induced contraction” value in data set [2] (norepinephrine 5×10^-6 M) amounted to 4.5e-08 mol. Also, in data set [2], the “ED40, 5-HT induced contraction” value is 5e-08 mol.

Consider `COc1ccc2c(c1OC)CCC(NCC(O)c1ccc(O)cc1)C2` (centres unmarked) [CHF 1296], for which the “Activity in isolated rat left atrium and right atrium (in words)” value in the data set on isolated rat left atrium is “completely inactive”.

On to `CC(CCc1ccc(O)cc1)NC1CCc2cc(O)c(O)cc2C1` (centres unmarked) [CHF 1026, 2-[1-(4-hydroxyphenyl)-but-3-ylamino]-6,7-dihydroxy-1,2,3,4-tetrahydronaphthalene, reference compound], for which the EC50 in the data set on isolated rat left atrium (setting [4]) worked out at 900 nM; in data set [1] (setting [6]) it was 130 nM; in data set [3] (with 10^-6 M propranolol, read-out: EC50 in presence of propranolol) it was 130000 nM; in data set [3] (without propranolol, read-out: EC50 in absence of propranolol) it was 230 nM. The Emax in the data set on isolated rat left atrium (setting [5]) was 81%; in data set [1] (setting [7]), 86%; in data set [3] (guinea pig, isoproterenol=1, without propranolol, read-out: α in absence of propranolol) it was 99%. For the same molecule, the “Effect of propranolol on dose-response curve” value in data set [3] (10^-6 M propranolol) is “parallelely shifted to the right, showing a competitive antagonistic action”. In addition, the “α in presence of propranolol” value in data set [3] (isoproterenol=1, with 10^-6 M propranolol) amounted to 0.94.

As to `COc1cc2nc(N3CCN(C(=O)c4ccco4)CC3)nc(N)c2cc1OC` [prazosin], the Emax in data set [2] (100% = complete reduction, norepinephrine 5×10^-6 M, read-out: α (efficacy), norepinephrine induced contraction) came out at 96%. Moreover, in data set [2], the “ED40, K+ induced contraction” value is “inactive” and the “ED40, 5-HT induced contraction” value is “inactive”. In data set [2] (norepinephrine 5×10^-6 M), the “ED40, norepinephrine induced contraction” value worked out at 1.5e-11 mol.

For `COc1ccc2c(c1OC)CCC(NCC(O)c1cccc(O)c1)C2` (centres unmarked) [CHF 1297], the “Activity in isolated rat left atrium and right atrium (in words)” value with isolated rat left atrium was “completely inactive”.

As to `NCCc1ccc(O)c(O)c1` [dopamine], the EC50 in the data set with isolated rat left atrium (setting [8]) was determined as 1190 nM; in the data set on isolated rat left atrium (setting [4]), 1200 nM; in data set [1] (setting [10]), 1890 nM; in data set [1] (setting [6]), 1900 nM. For the same molecule, the Emax in the data set on isolated rat left atrium (setting [9]) was determined as 95%; in the data set on isolated rat left atrium (setting [5]), 95%; in data set [1] (setting [11]), 106%; in data set [1] (setting [7]), 106%.

With `COc1ccc2c(c1OC)CCC(N[C@@H](C)[C@H](O)c1ccc(O)cc1)C2` (some centres unmarked) [CHF 1389, (αS, βR)-5,6-Dimethoxy-2-[2-(4-hydroxyphenyl)-2-hydroxy-1-methylethylemino]-1,2,3,4-tetrahydronaphthalene hydrochloride], the “Inotropic activity of diastereoisomeric mixture (in words)” value with isolated rat left atrium is listed as “as effective as CHF 1255 in the rat isolated left atrium”.

For `Nc1cc(-c2ccncc2)c[nH]c1=O` [amrinone], the EC50 with isolated rat left atrium (setting [8]) came to 26600 nM; in data set [1] (setting [10]), 155000 nM. The Emax stood at 29% in the data set with isolated rat left atrium (setting [9]) and 147% in data set [1] (setting [11]).
